Test results taken from ChEMBL document CHEMBL4229436, “Synthesis and biological evaluation of Complex I inhibitor R419 and its derivatives as anticancer agents in HepG2 cells” (Bioorg Med Chem Lett, 2018).
Blank lines part the entries; values can stand above or below the molecule they belong to. Active and inactive are the calls of the source. The calls are words filed in the database; no cut-off is given here.

Experiments:
HepG2 [1] = experiment: Cytotoxicity against human HepG2 cells after 72 hrs by MTT assay; assay type: functional, cell-based; settings: HepG2, 72 h
L02 = experiment: Cytotoxicity against human L02 cells after 72 hrs by MTT assay; assay type: cell-based; settings: L02, 72 h
A549 = experiment: Cytotoxicity against human A549 cells after 72 hrs by MTT assay; assay type: functional, cell-based; settings: A549, 72 h
HepG2 [2] = experiment: Induction of apoptosis in human HepG2 cells assessed as live cells at 0.3 uM after 40 hrs by Annexin-V-FITC/propidium iodide staining based flow cytometry (reference value: 82.6%); assay type: functional
HepG2 [3] = experiment: Induction of apoptosis in human HepG2 cells assessed as early apoptotic cells at 0.3 uM after 40 hrs by Annexin-V-FITC/propidium iodide staining based flow cytometry (reference value: 2.8%); assay type: functional
HepG2 [4] = experiment: Induction of apoptosis in human HepG2 cells assessed as late apoptotic cells at 0.3 uM after 40 hrs by Annexin-V-FITC/propidium iodide staining based flow cytometry (reference value: 7.6%); assay type: functional
HepG2 [5] = experiment: Induction of apoptosis in human HepG2 cells assessed as necrotic cells at 0.3 uM after 40 hrs by Annexin-V-FITC/propidium iodide staining based flow cytometry (reference value: 7%); assay type: functional
HepG2 [6] = experiment: Induction of apoptosis in human HepG2 cells assessed as live cells at 3 uM after 40 hrs by Annexin-V-FITC/propidium iodide staining based flow cytometry (reference value: 82.6%); assay type: functional
HepG2 [7] = experiment: Induction of apoptosis in human HepG2 cells assessed as early apoptotic cells at 3 uM after 40 hrs by Annexin-V-FITC/propidium iodide staining based flow cytometry (reference value: 2.8%); assay type: functional
HepG2 [8] = experiment: Induction of apoptosis in human HepG2 cells assessed as late apoptotic cells at 3 uM after 40 hrs by Annexin-V-FITC/propidium iodide staining based flow cytometry (reference value: 7.6%); assay type: functional
HepG2 [9] = experiment: Induction of apoptosis in human HepG2 cells assessed as necrotic cells at 3 uM after 40 hrs by Annexin-V-FITC/propidium iodide staining based flow cytometry (reference value: 7%); assay type: functional
HepG2 [10] = experiment: Induction of apoptosis in human HepG2 cells assessed as caspase-3 cleavage at 0.1 to 30 uM after 24 hrs by Western blot analysis; assay type: functional, cell-based
HepG2 [11] = experiment: Induction of apoptosis in human HepG2 cells assessed as PARP cleavage at 0.1 to 30 uM after 24 hrs by Western blot analysis; assay type: functional, cell-based
HepG2 [12] = experiment: Induction of intracellular ATP depletion in human HepG2 cells at 3 uM after 44 hrs by luminescence based spectrophotometric method; assay type: functional, cell-based
HepG2 [13] = experiment: Induction of intracellular ATP depletion in human HepG2 cells at 0.3 uM after 44 hrs by luminescence based spectrophotometric method; assay type: functional, cell-based
[14] = target: AMP-activated protein kinase, AMPK (Homo sapiens) (UniProt P54646+O43741+P54619+Q9UGJ0+Q9Y478+Q13131+Q9UGI9); experiment: Activation of AMPK in human HepG2 cells after 24 hrs by Western blot analysis; assay type: cell-based
HepG2 [15] = experiment: Reduction in Bcl2 to bax ratio in human HepG2 cells at 0.1 to 30 uM after 24 hrs by Western blot analysis; assay type: functional, cell-based
Homo sapiens [16] = species: Homo sapiens; experiment: Inhibition of NADH-ubiquinone oxidoreductase (unknown origin)
Homo sapiens [17] = species: Homo sapiens; experiment: Inhibition of NADH-ubiquinone oxidoreductase (unknown origin) at 50 uM

SMILES: O=C(COc1ccc2c(=O)cc(-c3ccccc3)oc2c1)NC1CCN(Cc2ccc(C(F)(F)F)cc2)CC1
IC50 (HepG2 [1]): 7.2 µM

SMILES: N#Cc1ccc(CN2CCC(NC(=O)COc3ccc4c(=O)cc(-c5ccccc5)oc4c3)CC2)cc1
IC50 (HepG2 [1]): 9.3 µM

SMILES: O=C(COc1ccc2c(=O)cc(-c3ccccc3)oc2c1)NC1CCN(Cc2ccccc2)CC1
IC50 (HepG2 [1]): 16.7 µM

Activity [14]: Dose-dependent effect
inhibition (Homo sapiens [16]): Dose-dependent effect
inhibition (Homo sapiens [17]): Active
SMILES: COc1ccc(CN2CCC(NC(=O)C(C)(C)Oc3ccc(-c4cc(=O)c5ccccc5o4)cc3)CC2)cc1
IC50 (HepG2 [1]): 2.8 µM
IC50 (L02): 17.6 µM
IC50 (A549): 40 µM
Activity (HepG2 [2]): 80.2%
Activity (HepG2 [3]): 1.6%
Activity (HepG2 [4]): 7.3%
Activity (HepG2 [5]): 11%
Activity (HepG2 [6]): 53.4%
Activity (HepG2 [7]): 0%
Activity (HepG2 [8]): 0.2%
Activity (HepG2 [9]): 46.4%
Activity (HepG2 [10]): inactive
Activity (HepG2 [11]): inactive
Activity (HepG2 [12]): Active
Activity (HepG2 [13]): inactive
Activity (HepG2 [15]): Active

SMILES: O=C(COc1ccc2c(=O)cc(-c3ccccc3)oc2c1)N1CCN(Cc2ccccc2)CC1
IC50 (HepG2 [1]): > 20 µM

SMILES: O=C(COc1ccc(-c2cc(=O)c3ccccc3o2)cc1)NC1CCN(Cc2ccccc2)CC1
IC50 (HepG2 [1]): 15.5 µM

SMILES: N#Cc1ccc(CN2CCC(NC(=O)COc3ccc(-c4cc(=O)c5ccccc5o4)cc3)CC2)cc1
IC50 (HepG2 [1]): 6.7 µM

Activity [14]: Active
inhibition (Homo sapiens [16]): Dose-dependent effect
SMILES: COc1ccc(C(=O)C2CCN(C(=O)c3ccc(C(=O)NC4CCN(Cc5ccc(C#N)cc5)CC4)cn3)CC2)cc1
IC50 (HepG2 [1]): 5.2 µM
IC50 (L02): 25.9 µM
IC50 (A549): 19.5 µM

SMILES: N#Cc1ccc(CN2CCC(NC(=O)COc3ccc4c(=O)c(-c5ccccc5)coc4c3)CC2)cc1
IC50 (HepG2 [1]): > 20 µM

SMILES: CC(C)(Oc1ccc(-c2cc(=O)c3ccccc3o2)cc1)C(=O)NC1CCN(Cc2ccccc2)CC1
IC50 (HepG2 [1]): > 20 µM

SMILES: O=C(COc1ccc(-c2cc(=O)c3ccccc3o2)cc1)N1CCN(Cc2ccccc2)CC1
IC50 (HepG2 [1]): > 20 µM

SMILES: CC(C)(Oc1ccc2c(=O)c(-c3ccccc3)coc2c1)C(=O)NC1CCN(Cc2ccccc2)CC1
IC50 (HepG2 [1]): > 20 µM

SMILES: COc1ccc(CN2CCC(NC(=O)COc3ccc(-c4cc(=O)c5ccccc5o4)cc3)CC2)cc1
IC50 (HepG2 [1]): 6.8 µM

SMILES: COc1ccc(CN2CCC(NC(=O)C(C)(C)Oc3ccc4c(=O)cc(-c5ccccc5)oc4c3)CC2)cc1
IC50 (HepG2 [1]): 8.7 µM

SMILES: CC(C)(Oc1ccc2c(=O)cc(-c3ccccc3)oc2c1)C(=O)NC1CCN(Cc2ccccc2)CC1
IC50 (HepG2 [1]): 14 µM

SMILES: COc1ccc(CN2CCC(NC(=O)COc3ccc4c(=O)c(-c5ccccc5)coc4c3)CC2)cc1
IC50 (HepG2 [1]): > 20 µM

SMILES: O=C(COc1ccc(-c2cc(=O)c3ccccc3o2)cc1)NC1CCN(C(=O)c2ccccc2)CC1
IC50 (HepG2 [1]): > 20 µM

SMILES: O=C(COc1ccc2c(=O)c(-c3ccccc3)coc2c1)N1CCN(Cc2ccccc2)CC1
IC50 (HepG2 [1]): > 20 µM

SMILES: O=C(COc1ccc2c(=O)cc(-c3ccccc3)oc2c1)NC1CCN(C(=O)c2ccccc2)CC1
IC50 (HepG2 [1]): > 20 µM

SMILES: CC(C)(Oc1ccc2c(=O)cc(-c3ccccc3)oc2c1)C(=O)NC1CCN(Cc2ccc(C(F)(F)F)cc2)CC1
IC50 (HepG2 [1]): > 20 µM

SMILES: O=C(COc1ccc2c(=O)c(-c3ccccc3)coc2c1)NC1CCN(Cc2ccccc2)CC1
IC50 (HepG2 [1]): > 20 µM
